Measured values as given in PubChem BioAssay (NCI).
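Values below derive from 48-hour exposures of cells grown in 96-well plates, with endpoints linearly interpolated between the two concentrations bracketing the appropriate inhibition level. GI50 marks 50% less growth. TGI: total growth inhibition.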

Columns and labels:
Assay in all cases: NCI anticancer screen, dose series, 48 h
[1] = test system: CCRF-CEM leukemia
[2] = test system: EKVX NSCLC
[3] = test system: HCT-116 colon
[4] = test system: KM12 colon
[5] = test system: KM20L2 colon
[6] = test system: M19-MEL melanoma
[7] = test system: SF-268 CNS
[8] = test system: SK-MEL-2 melanoma
[9] = test system: RXF 393 renal
[10] = test system: T-47D breast

Compound	TGI [1] [µM]	TGI [2] [µM]	TGI [3] [µM]	TGI [4] [µM]	TGI [5] [µM]	TGI [6] [µM]	TGI [7] [µM]	TGI [8] [µM]	TGI [9] [µM]	GI50 [1] [µM]	GI50 [2] [µM]	GI50 [3] [µM]	GI50 [4] [µM]	GI50 [9] [µM]	GI50 [7] [µM]	GI50 [8] [µM]	GI50 [10] [µM]	TGI [10] [µM]
CCC(O)C1Cc2c(C)cc3c(c2O1)C(=O)c1ccccc1C3=O (stereo unspecified)	> 100	> 100	> 100	> 100	> 100	> 100	> 100	> 100										
CCOC(=O)NC/C=C/COC1CCCCO1 (stereo unspecified)	> 100		> 100	> 100	> 100	> 100	> 100	> 100	> 100									
COc1cc(O)c2c(c1)O[C@@H]1OCC[C@H]21	> 100	> 100	> 100	> 100	> 100			> 100										
COc1ccc(NC(=O)CC/C(CC(=O)c2ccco2)=N/NC(N)=S)cc1	> 100	> 100	> 100	> 100	> 100	> 100	> 100	> 100										
Nc1nc(Cl)cc(NCC(O)CO)n1 (stereo unspecified)	> 100	> 100	> 100	> 100	> 100	> 100	> 100	> 100	> 100									
COc1cc2c(cc1OC)CC(=O)Nc1cc(OC)c(OC)cc1CC2	> 100	> 100	> 100	> 100	> 100	> 100	> 100	> 100										
N#CCCCCCOCCOCCOCCOCCOCCCCCC#N	> 100	> 100	> 100	> 100	> 100	> 100	> 100	> 100	> 100									
O=C(c1ccccc1)C(c1ccccc1)C1(O)C(=O)Nc2ccc([N+](=O)[O-])cc21 (stereo unspecified)	> 100	> 100	> 100		> 100	72.2	> 100	> 100	> 100									
COc1ccc(Cc2c(=O)[nH]nc3ccccc23)cc1	> 100	> 100	> 100	> 100	> 100	> 100	> 100	> 100										
Cc1nn2c(nc1=O)sc1ccc3ccccc3c12	> 100	> 100	> 100	> 100	> 100	> 100	> 100	> 100	> 100									
CC1(Br)CC2OC3(Br)C=CC(C)(O)C2(CC1=O)C3(C)C (stereo unspecified)	> 36	> 100	> 100	> 100	> 100		> 100	> 100										
O=[N+]([O-])c1cc([N+](=O)[O-])c(/C=C/c2ccc(Cl)c(Cl)c2)cc1/C=C/c1ccc(Cl)c(Cl)c1	53.4	> 100		51.1	81	46.1	75.8	56.4	37									
O=C(OC1CCC2OOC1O2)c1ccc([N+](=O)[O-])cc1 (stereo unspecified)	> 100	> 100	> 100	> 100	> 100	> 100	> 100	> 100	> 100									
CCCCNC(=O)C1C(=O)N(CCCC)C(=O)/C1=N\N (stereo unspecified)		> 100	> 100	> 100	> 100	> 100	> 100	> 100	> 100									
C=C1C(=O)O[C@H]2C[C@@H]1CC/C(C)=C/CC/C(C)=C/CC[C@@]2(C)O	38.9	> 100	32.8	> 100			> 100	> 100	> 100	16.5	> 100	17.6	> 100	> 100	> 100	46.7	> 100	> 100
C(=N\Nc1ccccc1)/c1nc2ccccc2nc1/C=N/Nc1ccccc1	> 100	> 78.6	25.7	41	26.5	41.1	29.3	39.3	30.1									
Cc1nc(-c2nc(-c3ccc(OC(F)(F)F)cc3)no2)nn1Cc1cccc(N2CCC(S(C)(=O)=O)CC2)c1	> 100	48.6	> 100	> 100			> 100	> 86.5	44.4	7.41	1.6	< 0.01	> 52.6	5.88	> 40.9	> 35.1	0.0134	> 100
c1ccc2cc(NCNc3ccc4ccccc4c3)ccc2c1	62.6	65.5	43.4	38.7			> 100	32.1	29.9									49.4
C[C@@H](NC(=O)/C(C#N)=C/c1ccc([N+](=O)[O-])cc1)c1ccccc1	> 38.9	20.7	3.79	4.18			13.4	8.52	3.04	2.56	6.81	1.89	2.07	1.62	3.69	3.3	5.53	26.4
CC1(C)CC[C@]2(C(=O)O)CC[C@]3(C)C(=CC[C@@H]4[C@@]5(C)C[C@H](O)[C@H](O)[C@@](C)(C(=O)O)[C@@H]5CC[C@]43C)[C@@H]2C1	> 100	> 100	> 100	> 100			> 100	> 100	> 100									> 100
O=C(/C(=C/c1ccc([N+](=O)[O-])cc1)SCc1ccc(Cl)cc1)c1ccc(F)cc1	> 100	15.2	2.92	8.08			21.6	23.1	18.3	1.97	3.78	1.39	2.71	5.75	4.95	7.9	4.32	19.3
CCOC(=O)C(N=C(c1ccccc1)c1ccccc1)N(C(=O)OC(C)(C)C)C(=O)OC(C)(C)C (stereo unspecified)		> 100	> 100	> 100	> 100	> 100	> 100	> 100	> 100									
N/C(=N/N=C/c1ccccc1)N/N=C\c1ccccc1	> 100	> 100	> 100	> 100			> 100	43.9	8.48	5.13	7.59	4.5	2.76	2.46	9.66	3.58	4.73	> 100
